From PMC5833777, “Lup-20(29)-en-3β,28-di-yl-nitrooxy acetate affects MCF-7 proliferation through the crosstalk between apoptosis and autophagy in mitochondria” (Cell Death & Disease, 2018)

Experiments:
MCF-7 cells = test: Western blots of MCF-7 cell extracts; type: cell-based
Procedure: MCF-7 cells treated with NBT and/or CQ for 24 h were harvested, washed twice with cold PBS, and then fractionated into cytosolic and mitochondrial fractions by using a Qproteome Mitochondria Isolation Kit (Qiagen, Germany) following the manufacturer’s protocol.
MCF-7 cells treated with NBT and/or CQ for 24 h were lysed in cell lysis buffer containing 1% PMFS for 30 min on ice and centrifuged at 12,000 r.p.m. for 5 min at 4 °C. Then, the protein was quantified by using a BCA Protein Assay Kit (BestBio, Shanghai, China).
Total cell extracts (50 μg) were separated by using SDS-PAGE at 120 V for 1.5 h at room temperature and then eletrotransferred onto PVDF membranes at 300 mA for 1 h at 4 °C. The membranes were washed three times with TBST each for 10 min, blocked with 5% nonfat dry milk in TBST for 2 h at room temperature, rinsed with TBST, incubated with primary antibodies overnight at 4 °C, washed three times with TBST, incubated with HRP-linked anti-IgG for 1 h at room temperature, and then washed three times as before. At the same time, β-actin, GAPDH, and tubulin acted as the control. Afterward, the chemiluminescent bands were analyzed using Image Lab™ Software on ChemiDoc XRS + (Bio-Rad, USA).

[1] = for coefficient of the heart, liver, spleen, and kidney to the body weight: after 11 days of exposure; for body weight changes: during 11 days of exposure; for ALT/GPT / AST/GOT / BUN / CRE / UA: serum, after 11 days i.p., N = 8, mean ± S
MCF-7 xenograft = test: In vivo antitumor efficacy on MCF-7 tumor-bearing nude mice (tumor volume, H&E, TUNEL); parameters: species or system female BALB/c nude mice; conditions: for tumor growth compared with the control: i.p. daily for 11 days, NBT 100 mg/kg, BT 100 mg/kg, 5-FU 22 mg/kg
Text: Representative images are shown at ×400 magnification. Scale bar: 100 μm. Data represent mean ± SD of three independent experiments
Tumor samples were fixed in 10% formalin, paraffinized, and sectioned into 4-μm sections, which were stained with H&E according to standard methods.
Tumor samples were fixed in 10% formalin, paraffinized, and sectioned into 4-μm sections, which were stained with FITC-POD according to standard methods.

MCF-7 = test: CCK-8 cell proliferation assay, MCF-7; type: cell-based; conditions: Homo sapiens, MCF7, 48 h
Procedure: (§1) Fig. 2 NBT and BT induced cell death in HeLa, A549, and MCF-7 cell lines. a Effects of BT on the proliferation of MCF-7, HeLa, and A549 cells. Cells (5 × 10^3) were seeded in a 96-well plate for 24 h and then treated with increased concentrations of BT for 48 h. The cell viability was evaluated by using CCK-8 assay. b MCF-7, HeLa, and A549 cells (5 × 10^3) were seeded in a 96-well plate for 24 h and were treated with known concentrations of NBT for 48 h. c MCF-7 cells (5 × 10^3) were seeded in a 96-well plate for 24 h and then were treated with known concentrations of NBT for 24 or 48 h. The cell viability was evaluated by using CCK-8 assay. d MCF10A, BEAS-2B, and L-02 cells (5 × 10^3) were seeded in a 96-well plate for 24 h and were treated with 6, 12, and 24 μM concentrations of NBT for 24 or 48 h. The cell viability was evaluated by using CCK-8 assay.
(§2) MCF-7, HeLa, A549, BEAS-2B, MCF10A, and L-02 cell lines were purchased from the American Type Culture Collection (ATCC) (Rockville, Maryland, USA). […]
(§3) Cells were grown in 96-well plates at a density of 5 × 10^3 cells/100 μL for 24 h, and then various concentrations of BT or NBT were added for 24 or 48 h. […] Optical density was measured at 450 nm by using a multimode plate reader (PerkinElmer EnSpire, USA).

A549 = test: CCK-8 cell proliferation assay, A549; type: cell-based; conditions: Homo sapiens, 48 h
Procedure: as §1, §2, §3

HeLa = test: CCK-8 cell proliferation assay, HeLa; type: cell-based; conditions: Homo sapiens, 48 h
Procedure: as §1, §2, §3

[2] = MCF-7, 24 h, NBT 6-24 μM, Rapa 0.25 μM, NBT 12 μM + CQ 40 μM

In the case of `Cn1cnc(N)c2ncnc1-2` [3-MA, 3-methyladenine, reference compound], the “effect on NBT-induced caspase-9 and PARP activation” value (MCF-7 cells; MCF-7, 3-MA 5 mM with NBT 12 μM, 24 h) is reported as “inhibit”.

With `O=c1[nH]cc(F)c(=O)[nH]1` [5-FU, 5-fluorouracil] the “coefficient of the heart, liver, spleen, and kidney to the body weight” value [1] was “no significant differences”, the body weight changes [1] was “no significant differences” and the ALT/GPT [1] was 95.48 ± 12.86 IU/L. The AST/GOT [1] was 245.71 ± 47.15 IU/L, the BUN [1] was 9.26 ± 2.23 mmol/L and the CRE [1] was 32.95 ± 6.29 µmol/L. For the same compound, the UA [1] was 84.52 ± 6.63 µmol/L and the “tumor growth compared with the control” value (MCF-7 xenograft) was “significant reduction in tumor growth”.

With `C=C(C)[C@@H]1CC[C@]2(CO)CC[C@]3(C)[C@H](CC[C@@H]4[C@@]5(C)CC[C@H](O)C(C)(C)[C@@H]5CC[C@]43C)[C@@H]12` [BT, Betulin] the “safety after 11 days of administration” value ([1]; 100 mg/kg i.p., nude mice) was “safe”, the “coefficient of the heart, liver, spleen, and kidney to the body weight” value [1] was “no significant differences” and the body weight changes [1] was “no significant differences”. It also gave an ALT/GPT [1] of 106.33 ± 24.27 IU/L, an AST/GOT [1] of 183.42 ± 39.98 IU/L and a BUN [1] of 10.13 ± 3.04 mmol/L. The CRE [1] was 45.10 ± 6.43 µmol/L, the UA [1] was 130.18 ± 25.22 µmol/L and the inhibition at 500 µM (MCF-7) was ≤ 40%. The “HE staining of tumors” value (MCF-7 xenograft; 100 mg/kg i.p., 11 days) was “fibrosis, necrosis, and inflammatory cell infiltration”, the “tumor growth compared with the control” value (MCF-7 xenograft) was “minimal reduction in tumor growth” and the inhibition at 500 µM (A549) was ≤ 40%. For the same compound, the IC50 (HeLa) was 288 ± 12.3 µM.

In the case of `CCN(CC)CCCC(C)Nc1ccnc2cc(Cl)ccc12` (stereo not drawn) [CQ, Chloroquine, reference compound], the “p62 level increased by” value (MCF-7 cells; MCF-7, 40 μM, 24 h) is reported as 75%.

For `CO[C@H]1C[C@@H]2CC[C@@H](C)[C@@](O)(O2)C(=O)C(=O)N2CCCC[C@H]2C(=O)O[C@H]([C@H](C)C[C@@H]2CC[C@@H](O)[C@H](OC)C2)CC(=O)[C@H](C)/C=C(\C)[C@@H](O)[C@@H](OC)C(=O)[C@H](C)C[C@H](C)/C=C/C=C/C=C/1C` [Rapa, Rapamycin, reference compound], the “p62 level reduced by” value (MCF-7 cells; MCF-7, 0.25 μM alone, 24 h) was 60%, the Atg5 level (MCF-7 cells; [2]) was “increased” and the p62 level (MCF-7 cells; [2]) was “decreased”. For the same compound, the LC3B-II level (MCF-7 cells; MCF-7, 24 h, Rapa 0.25 μM, NBT 12 μM + CQ 40 μM) was “increased”.
